{"source": "patent US6307080A", "about": "“Water-soluble zinc pyruvates or their hydrates, method for the product ion thereof and their use” (SKW Trostberg Aktiengesellschaft, priority 1998, dated 2001)", "key": {"[1]": {"test_system": "influenza A/Chile/1/83 or influenza B/Singapore/27/79 in MDCK cells", "assay_type": "cell-based, influenza A and influenza B viruses", "conditions": "Table 1; for Plaque (plaque reduction assay): concentration in plaque reduction assay, MDCK cells, 30 min treatment; for Plaque Reduction: percentage reduction in number of plaque per unit volume (well), 30 min"}, "[2]": {"test_system": "influenza A/Chile/1/83 or influenza B/Singapore/27/79 (viral hemagglutination of erythrocytes)", "assay": "Inhibition of influenza-induced viral hemagglutination (vHAI) of erythrocytes (RBC)", "assay_type": "cell-based, influenza A and influenza B viruses", "conditions": "Table 1; for IC50: read-out: HAI IC50"}, "Solubility": {"assay": "Solubility", "assay_type": "physicochemical", "conditions": "product of Berzelius's instructions, identified as zinc parapyruvate"}, "type II diabetics": {"test_system": "type II diabetics", "conditions": "cited from earlier work"}, "macrophages [3]": {"test_system": "macrophages", "assay": "Inhibition of superoxide (HO2) release from activated macrophages (cytochrome C reduction)", "assay_type": "cell-based", "conditions": "in words"}, "macrophages [4]": {"target": "macrophages", "assay": "Binding/association of zinc pyruvate to macrophages (equilibrium dialysis)"}}}
{"molecule": "CC(=O)[O-].CC(=O)[O-].[Zn+2]", "note": "[Zn(Ac)2]", "values": [{"measurement": "Plaque (plaque reduction assay)", "setting": "[1]", "result": 1700, "unit": "µM"}, {"measurement": "Plaque Reduction", "setting": "[1]", "result": 15, "unit": "%"}, {"measurement": "Potency HAI", "setting": "[2]", "result": 6.0}, {"measurement": "IC50", "setting": "[2]", "result": 150, "unit": "µM"}]}
{"molecule": "[Cl-].[Cl-].[Zn+2]", "note": "[ZnCl2]", "values": [{"measurement": "Plaque (plaque reduction assay)", "setting": "[1]", "result": 1200, "unit": "µM"}, {"measurement": "Plaque Reduction", "setting": "[1]", "result": 20, "unit": "%"}, {"measurement": "Potency HAI", "setting": "[2]", "result": 5.0}, {"measurement": "IC50", "setting": "[2]", "result": 100, "unit": "µM"}]}
{"molecule": "O.[O]=[Zn]", "note": "[ZnO.H2 O]", "values": [{"measurement": "Plaque (plaque reduction assay)", "setting": "[1]", "result": 1700, "unit": "µM"}, {"measurement": "Plaque Reduction", "setting": "[1]", "result": 15, "unit": "%"}, {"measurement": "Potency HAI", "setting": "[2]", "result": 4.5}]}
{"molecule": "[O]=[Zn]", "note": "[ZnO.H2 O]", "values": [{"measurement": "IC50", "setting": "[2]", "result": "~200", "unit": "µM"}]}
{"molecule": "CC(O)(CC(=O)C(=O)[O-])C(=O)[O-].[Zn+2]", "note": "(centres unmarked) [zinc parapyruvate]", "values": [{"measurement": "solubility", "setting": "Solubility", "result": "sparingly soluble"}]}
{"molecule": "[Zn]", "note": "[zinc]", "values": [{"measurement": "average fasting blood sugar", "setting": "type II diabetics; after administration of zinc for 6 weeks, decrease from 250, Perger and coworkers", "result": 142, "unit": "mg %"}, {"measurement": "fasting and postprandial blood sugar level", "setting": "type II diabetics; other studies, zinc administration", "result": "decreases markedly"}]}
{"molecule": "zinc pyruvate", "values": [{"measurement": "inhibitory effect on the release of HO2 (respiratory burst activity)", "setting": "macrophages [3]", "result": "regulatory and in part inhibitory effect"}, {"measurement": "lysis of RBC cells begins at", "setting": "erythrocytes (RBC)", "result": 1000, "unit": "µg/mL"}, {"measurement": "binding constant", "setting": "macrophages [4]; macrophages, cell count of 10^5, read-out: binding constant determined by equilibrium dialysis", "result": 150, "unit": "nM"}, {"measurement": "association constant of zinc pyruvate to the macrophages", "setting": "macrophages [4]; under these in-vitro conditions", "result": 150, "unit": "nM"}, {"measurement": "Plaque (plaque reduction assay)", "setting": "[1]", "result": 90.5, "unit": "µM"}, {"measurement": "Plaque Reduction", "setting": "[1]", "result": 67, "unit": "%"}, {"measurement": "Potency HAI", "setting": "[2]", "result": 19.9}, {"measurement": "IC50", "setting": "[2]", "result": 25.3, "unit": "µM"}]}
